Among the test systems are A498; DMS-114; DMS-273; HOP-62; KM12; LOX IMVI; MOLT-4; Malme-3M; OVCAR-4; OVCAR-8; SF-539; SK-OV-3; SR; SW-620; TK-10; UACC-257; DU-145; Hs-578T; PC-3; T47D.
Common to all, as to experiment: inhibition of tumour cell growth, NCI panel, 48 h

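These data come from cells grown in 96-well plates and exposed to compound for 48 hours at five concentrations. GI50 = concentration required for 50% inhibition of growth.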 The source made the active and inactive calls. No stated cut-off is given here; in the data, active = GI50 up to about 1.1 µM and inactive = higher.

Take `C#CCCCCC#CC1CCCC1C1=CC(=O)c2ccccc21` (configuration not stated): the GI50 in the assay on A498 was 15 µM (inactive); in the assay on DMS-114, 1.48 µM (inactive); in the assay on DMS-273, 3.49 µM (inactive); in the assay with HOP-62, 7.36 µM (inactive); in the assay with KM12, 6.27 µM (inactive); in the assay on LOX IMVI, 3.22 µM (inactive). Moreover, the GI50 with MOLT-4 was 2.25 µM (inactive); in the assay with Malme-3M it was 6.55 µM (inactive); with OVCAR-4 it was 10.3 µM (inactive); in the assay on OVCAR-8 it was 1.66 µM (inactive); in the assay on SF-539 it was 8.93 µM (inactive); in the assay with SK-OV-3 it was 15.3 µM (inactive). The GI50 is 2.79 µM (inactive) in the assay with SR, 2.28 µM (inactive) in the assay with SW-620, 20.3 µM (inactive) in the assay with TK-10 and 11.2 µM (inactive) with UACC-257.

In the case of `O=C(CCc1nnc(S)[nH]1)Nc1cccc(C(F)(F)F)c1`, the GI50 in the assay with A498, in the assay on DMS-114, with DMS-273, in the assay with HOP-62, in the assay on KM12 and in the assay with LOX IMVI was > 100 µM (inactive) in each case. Also, the GI50 in the assay on MOLT-4, in the assay with Malme-3M, in the assay with OVCAR-4, with OVCAR-8, in the assay on SF-539 and with SK-OV-3 was > 100 µM (inactive) throughout. For the same compound, the GI50 with SR was > 100 µM (inactive); with SW-620, 11.2 µM (inactive); in the assay on TK-10, > 100 µM (inactive); in the assay with UACC-257, > 100 µM (inactive).

Consider `COC(c1cccc(C(O)(C(F)(F)F)C(F)(F)F)c1)(C(F)(F)F)C(F)(F)F`, for which the GI50 was 20.1 µM (inactive) in the assay with A498; 18.6 µM (inactive) in the assay with DMS-114; 19.3 µM (inactive) with DMS-273; 19.1 µM (inactive) with HOP-62; 19.5 µM (inactive) in the assay with KM12; 17.5 µM (inactive) with LOX IMVI. In addition, the GI50 with MOLT-4 was 22 µM (inactive); in the assay on Malme-3M it was 19.4 µM (inactive); in the assay with OVCAR-4 it was 16.7 µM (inactive); in the assay with OVCAR-8, 24.6 µM (inactive); in the assay on SF-539, 19.2 µM (inactive); in the assay with SK-OV-3, 20.1 µM (inactive). Further, the GI50 was 32.1 µM (inactive) in the assay with SR, 18.8 µM (inactive) with SW-620, 22.1 µM (inactive) with TK-10 and 27.1 µM (inactive) in the assay with UACC-257.

Consider `O=C(O)CCc1cccc2c1oc1c(CCC(=O)O)cccc12`, for which the GI50 with A498, with DMS-114, with DMS-273, in the assay with KM12, in the assay with LOX IMVI and in the assay on MOLT-4 was > 100 µM (inactive) throughout. The GI50 with Malme-3M, in the assay on OVCAR-4, in the assay with OVCAR-8, in the assay with SF-539, with SK-OV-3 and with SR was > 100 µM (inactive) in each case. Also, the GI50 in the assay on SW-620, with TK-10 and in the assay with UACC-257 was > 100 µM (inactive) in each case.

In the case of `O=C1/C(=C/c2ccccc2)CN(C(=O)Oc2ccc(Cl)cc2)C/C1=C\c1ccccc1`, the GI50 was 2.11 µM (inactive) with A498; 1.79 µM (inactive) with DMS-114; 1.83 µM (inactive) in the assay with DMS-273; 10 µM (inactive) in the assay with HOP-62; 1.49 µM (inactive) in the assay on KM12; 0.635 µM (active) in the assay with LOX IMVI. The GI50 in the assay on MOLT-4 is 2.65 µM (inactive); in the assay on Malme-3M it was 11.3 µM (inactive); with OVCAR-4 it was 0.887 µM (active); with OVCAR-8, 1.65 µM (inactive); with SF-539 it was 2.36 µM (inactive); in the assay on SK-OV-3, 7.13 µM (inactive). The GI50 with SR is 1.32 µM (inactive); with SW-620 it was 1.22 µM (inactive); in the assay on TK-10, 5.21 µM (inactive); in the assay on UACC-257, 1.7 µM (inactive).

Regarding `COc1cccc(NC(=O)CC(=O)n2nc(C)c(/N=N/c3ccccc3)c2C)c1`, the GI50 is 76 µM (inactive) with A498; > 100 µM (inactive) with DMS-114; > 100 µM (inactive) in the assay on DMS-273; > 100 µM (inactive) in the assay on HOP-62; > 100 µM (inactive) in the assay with KM12; 83.6 µM (inactive) in the assay with LOX IMVI. For the same compound, the GI50 was 69.2 µM (inactive) in the assay with MOLT-4; > 100 µM (inactive) in the assay on Malme-3M; > 100 µM (inactive) with OVCAR-4; > 100 µM (inactive) with OVCAR-8; > 100 µM (inactive) with SF-539; > 100 µM (inactive) with SK-OV-3. In addition, the GI50 in the assay on SR was 78.7 µM (inactive); with SW-620, > 100 µM (inactive); with TK-10, 85.7 µM (inactive); in the assay with UACC-257, > 100 µM (inactive).

For `O=C(CSSCC(=O)Nc1ccc(Br)cc1)Nc1ccc(Br)cc1`, the GI50 in the assay on A498 was 19.6 µM (inactive); in the assay on DMS-114, 14 µM (inactive); in the assay on DMS-273, 16.5 µM (inactive); in the assay on HOP-62, 12.4 µM (inactive); with KM12 it was 19.1 µM (inactive); with LOX IMVI, 10.8 µM (inactive). In addition, the GI50 in the assay with MOLT-4 is 14.1 µM (inactive); in the assay with Malme-3M, 21.8 µM (inactive); in the assay with OVCAR-4 it was 20 µM (inactive); with OVCAR-8, 17.3 µM (inactive); with SF-539 it was 17.6 µM (inactive); with SK-OV-3, 25.4 µM (inactive). The GI50 with SR was 10.3 µM (inactive); with SW-620, 15.2 µM (inactive); with TK-10 it was 16.7 µM (inactive); with UACC-257, 20.7 µM (inactive).

Take `C[n+]1ccn2c3nc4ccccc4nc3c([O-])c(C#N)c21`: the GI50 in the assay with A498 is > 100 µM (inactive); in the assay on DMS-114, > 100 µM (inactive); in the assay on DMS-273 it was > 100 µM (inactive); in the assay on DU-145, > 100 µM (inactive); in the assay on HOP-62 it was > 10 µM (inactive); with Hs-578T, > 100 µM (inactive). For the same compound, the GI50 in the assay with KM12 was > 10 µM (inactive); in the assay on LOX IMVI, > 100 µM (inactive); in the assay with MOLT-4, > 100 µM (inactive); in the assay with Malme-3M, > 100 µM (inactive); in the assay with OVCAR-4 it was > 100 µM (inactive); in the assay on OVCAR-8, > 56.6 µM (inactive). Further, the GI50 in the assay on PC-3, with SF-539, in the assay on SK-OV-3, with SR, with SW-620 and in the assay on T47D was > 100 µM (inactive) each time. The GI50 in the assay with TK-10 is > 10 µM (inactive); in the assay on UACC-257, > 100 µM (inactive).

As for `Cc1cc(C)n(CCNCCn2nc(C)cc2C)n1`, the GI50 with A498, in the assay with DMS-114, with DMS-273, in the assay with HOP-62, in the assay on KM12 and in the assay on LOX IMVI was > 100 µM (inactive) each time. Moreover, the GI50 with MOLT-4, in the assay on OVCAR-4, with OVCAR-8, in the assay on SF-539, in the assay on SK-OV-3 and in the assay on SR was > 100 µM (inactive) throughout. In addition, the GI50 with SW-620, in the assay on TK-10 and in the assay with UACC-257 was > 100 µM (inactive) in each case.

With `O=C1CSC(Cc2nc3ccccc3[nH]2)=N1`, the GI50 in the assay with A498 is 5.98 µM (inactive); in the assay on DMS-114 it was 13.1 µM (inactive); in the assay with DMS-273 it was 15.4 µM (inactive); in the assay with HOP-62, 22.3 µM (inactive); in the assay with KM12 it was 17.6 µM (inactive); in the assay with LOX IMVI it was 13.9 µM (inactive). In addition, the GI50 in the assay with MOLT-4 is 9.98 µM (inactive); in the assay with Malme-3M it was 10.6 µM (inactive); with OVCAR-4 it was 18.5 µM (inactive); in the assay with OVCAR-8, 23.5 µM (inactive); in the assay with SF-539, 20.7 µM (inactive); in the assay with SK-OV-3, 36.1 µM (inactive). The GI50 is 5.83 µM (inactive) with SR, 31.9 µM (inactive) in the assay on SW-620, 28.2 µM (inactive) in the assay on TK-10 and 19.7 µM (inactive) in the assay with UACC-257.

With `CCC(COC(=O)CC[C@@H](NC(=O)C(C)NC(=O)C(C)OC1C(O)C(CO)OC(OCc2ccccc2)C1NC(C)=O)C(N)=O)NC1c2ccccc2Nc2cccc([N+](=O)[O-])c21` (some centres not stated), the GI50 in the assay on DMS-114, in the assay with DMS-273, in the assay on HOP-62, with KM12, with LOX IMVI and in the assay with MOLT-4 was > 100 µM (inactive) in each case. Besides, the GI50 with Malme-3M, in the assay with OVCAR-4, in the assay on OVCAR-8, in the assay on SF-539, in the assay with SK-OV-3 and with SR was > 100 µM (inactive) throughout. In addition, the GI50 in the assay with SW-620, with TK-10 and in the assay on UACC-257 was > 100 µM (inactive) each time.
